According to patent publication US10905757B2, “Cross-reactive T cell epitopes of HIV, SIV, and FIV for vaccines in humans and cats” (priority 2012, dated 2021):
Entries after “also recorded” stand apart in the source; their conditions may differ. Ends that are not written are not given here.

Tests used:
Format in all cases: cell-based, human
[1] = test system: CD4+ or CD8+ T cells from HIV+ subjects; assay: Intracellular cytotoxin staining (ICS), CD4+ or CD8+ T cells from HIV+ responders; settings: for cytotoxin / CTL-associated activity (in words): RT pools and peptides; for cytotoxin and CD107a expression in CD4+ and CD8+ T cells (in words): p24 peptides
Description: Briefly, 1×10^6PBMCs (freshly isolated) are stimulated with 20 μg of peptides for 6 hours in a total volume of 200 μL in a 96-well plate in presence of Golgi transport inhibitor (37° C., 5% CO2). […] Cells were stained with the LIVE/DEAD® fixable yellow dye (Invitrogen, Eugene, Oreg.). […] The flow cytometry data is collected using BD LSRII and analyzed with the FACS DIVA software.
The cells were subsequently fixed and permeabilized with Cytofix/Cytoperm solution (BD Biosciences) before reaction with anti-cytotoxin antibodies. The antibodies consisted of anti-CD3 APC-H7, anti-CD4 BD Horizon V450, and anti-CD8 FITC followed by anti-GrzB Alexa 700 and anti-GrzA PE (all from BD Biosciences), and anti-perforin PerCP (Abcam, Boston, Mass.).
(§1) In both analyses, 1.0-2.0×10^4 cells were fixed in phosphate-buffered saline (PBS) containing 2% paraformaldehyde and analyzed on BD LSRII using […] Software (BD Biosciences), with a positive threshold of 3% CFSE^low for CFSE-proliferation and 1% T cells expressing cytotoxin for ICS. The final value for each subject was derived after subtraction of the subject's medium control and the average value of peptide-stimulated cells from uninfected control subjects.
Flow cytometry (FACS) for measuring CFSE-proliferation and intracellular cytokine staining (ICS).
Both analyses were performed with BD LSRII and […]™ Software (BD Biosciences), using a positive threshold of >1% CFSE^low for CFSE-proliferation except for ICS studies with threshold of >0.1% T cells expressing cytotoxin.

[2] = test system: CD3+CD8+ T cells from HIV+ subjects; assay: CFSE-proliferation, CD3+CD8+ T cells from HIV+ subjects; settings: for responder frequency of CD8+ T-cell proliferation to individual F3 peptides: eight F3 responders; for CD8^+ T-cell Responder Frequency: responders/tested
Description: (§2) 2×10^5-5×10^5 CFSE labeled PBMCs were incubated with 15-20 μg of peptides in 600 μL of RPMI media with 10% FBS for 5 days at 37° C. (5% CO2). After harvesting, they were labeled with allophycocyanin (APC), APC-H7, and Pacific Blue labeled monoclonal antibodies (MAb) to human CD3, CD4, and CD8, respectively and analyzed for T-cell proliferation by flow cytometry using BD LSRII (BD Biosciences). The proliferating CD4^+ or CD8^+ T cell populations were defined from the CD3^+ cell population as either CD3^+CD8^+ or CD3^+CD4^+T cells (mutually exclusive) with low CFSE (CFSE^low) staining.
(§3) Flow cytometry (FACS) for carboxyfluoresein diacetate succinimide ester (CFSE)-proliferation and intracellular cytotoxin staining (ICS). The CFSE-proliferation analysis was performed on PBMC according to the manufacturer's protocol (Invitrogen, Carlsbad, Calif.) and processed as previously described (Lichterfeld et al. (2004)). Modifications consisted of using 2.0-5.0×10^5 CFSE-labeled cells stimulated for 5 days (37° C., 5% CO^2) with 30 μg/well of total peptides in a pool (15 μg/well for individual peptide, Table 10) or 5 μg/mL PHA in AIM V medium containing 25 μg/mL of gentamycin and 10% heat-inactivated human serum. Subsequently these cells were harvested and labeled with the LIVE/DEAD fixable yellow dye (Invitrogen) and then treated 5 min with anti-CD16/CD32 antibody (Biolegend, San Diego, Calif.) for blocking non-specific binding before phenotype-specific antibodies. The following antibodies were used for the CFSE-proliferation analysis: anti-CD4 APC, anti-CD3 APC-H7, and anti-CD8 Pacific Blue (BD Biosciences, San Jose, Calif.).
as §1
(§4) Flow cytometry (FACS) for measuring CFSE-proliferation and intracellular cytokine staining (ICS). Carboxyfluorescein diacetate succinimide ester (CFSE)-proliferation analysis was performed according to the manufacturer's protocol (Invitrogen) and processed as previously described (Lichterfeld et al. 2004) using the following modification: 2.5-5.0×10^5 CFSE-labeled PBMC stimulated for 4-5 days (37° C., 5% CO2) with 15-30 μg of peptides in culture media (AIM V medium, 25 μg/mL gentamycin, and 10% heat-inactivated fetal bovine serum). The ICS analysis was performed as previously described (Horton et al. 2007; Pattacini et al. 2012).
(§5) The antibodies used for the proliferation analysis consisted of anti-CD4 allophycocyanin (APC) anti-CD3 APC-H7, and anti-CD8 Pacific Blue, and those for ICS were anti-CD3 APC-H7, anti-CD4 BD Horizon V450, anti-CD8 FITC, anti-granzyme B (GrzB) Alexa 700, anti-granzyme A (GrzA) PE (BD Biosciences, Cat #555349, 560176, 558207, 560345, 555366, 560213, 558904), and anti-perforin PerCP (Abcam, Cat #ab86319). Both analyses were performed with BD LSRII and […]™ Software (BD Biosciences), using a positive threshold of >1% CFSE^low for CFSE-proliferation except for ICS studies with threshold of >0.1% T cells expressing cytotoxin. The final value for each subject was derived after subtracting the result of each HIV^+ subject with the media control followed by subtraction with the average response of the media-control subtracted HIV^− subjects.

[3] = test system: CD3+CD4+ T cells from HIV+ subjects; assay: CFSE-proliferation, CD3+CD4+ T cells from HIV+ subjects; settings: for CD4^+ T-cell Responder Frequency: responders/tested
Description: as §2, §3, §1, §4, §5

[4] = test system: CD8+ T cells from HIV+ subjects; assay: Intracellular cytotoxin staining (ICS: perforin, GrzA, GrzB, CD107a), CD8+ T cells from HIV+ subjects
Description: Briefly, 1×10^6PBMCs (freshly isolated) are stimulated with 20 μg of peptides for 6 hours in a total volume of 200 μL in a 96-well plate in presence of Golgi transport inhibitor (37° C., 5% CO2). The cells are processed as previously described (Horton et al. (2007)). Cells were stained with the LIVE/DEAD® fixable yellow dye (Invitrogen, Eugene, Oreg.). The monoclonal antibodies fluorochome-conjugated to human cytokines used are: APC-H7 to CD3 (clone SK7); BD Horizon V450 to CD4 (clone RPA-T4); Qdot to CD8 (clone 3B5); PE-cy7 to IFN-γ (clone 4S.B3); APC to IL-2 (clone MQ1-17H12) PerCP to perforin (clone B-D48); Alexa F1.700 to granzyme-B (clone GB11) and PE to granzyme-A (clone CB9). The flow cytometry data is collected using BD LSRII and analyzed with the FACS DIVA software.
The ICS analysis (Horton et al. (2007)) involved stimulating 0.5-1.0×10^6 freshly isolated PBMC for 6 h with the same peptide stimulant and culture conditions as the proliferation analysis in the presence of 1 μg/mL of Golgi transport inhibitor and monensin followed by labeling with LIVE/DEAD fixable yellow dye and then treatment with anti-CD16/CD32 antibody and T-cell phenotypic antibodies. The cells were subsequently fixed and permeabilized with Cytofix/Cytoperm solution (BD Biosciences) before reaction with anti-cytotoxin antibodies. The antibodies consisted of anti-CD3 APC-H7, anti-CD4 BD Horizon V450, and anti-CD8 FITC followed by anti-GrzB Alexa 700 and anti-GrzA PE (all from BD Biosciences), and anti-perforin PerCP (Abcam, Boston, Mass.).
as §1, §4, §5

[5] = small 9-13mer peptides, yr 4, responders to Fp9 or Fp14 pool via both proliferation and IFNγ
[6] = large 13-15mer peptides, yr 2, responders to Fp9 or Fp14 pool via CFSE proliferation

Compound | CD8^+ T-cell Responder Frequency [2, 5] | CD8^+ T-cell Responder Frequency (%) [2, 5] | CD4^+ T-cell Responder Frequency [3, 5] | CD4^+ T-cell Responder Frequency (%) [3, 5] | cytotoxin and CD107a expression in CD4+ and CD8+ T cells (in words) [1] | also measured
KKKSGKWRMLIDFRV [F3-3] |  |  |  |  |  | cytotoxin / CTL-associated activity (in words) [1]: induce cytotoxin expression
IDFRVLNKLTDKGA [F3-5] |  |  |  |  |  | responder frequency of CD8+ T-cell proliferation to individual F3 peptides [2]: 3 of 8
Fp14-2/3b (AEVKLYLKQ) | 3/10 | (30) % | 1/10 | (10) % |  | 
CSCC[C@H](NC(=O)[C@H](Cc1c[nH]c2ccccc12)NC(=O)[C@H](CC(N)=O)NC(=O)[C@H](CCCCN)NC(=O)[C@@H](NC(=O)[C@H](C)NC(=O)[C@H](C)NC(=O)[C@H](CC(=O)O)NC(=O)[C@@H](N)[C@@H](C)O)C(C)C)C(=O)N[C@H](C(=O)O)[C@@H](C)O [Sp14-1c] |  |  |  |  | slightly lower number of responses | 
AEARFAPARMQCRAW [Fp9-2] |  |  |  |  |  | CD8^+ T-cell Responder Frequency (%) [2, 6]: (43) %; CD8^+ T-cell Responder Frequency [2, 6]: 3/7; Fp9 responders whose CD8+ T cells proliferate to individual 13-15mer peptide ([2]; seven Fp9 responders): 3 of 7; CD4^+ T-cell Responder Frequency (%) [3, 6]: (14) %; CD4^+ T-cell Responder Frequency [3, 6]: 1/7
Fp9-3e (ARMQCRAWYL) | 3/9 | (33) % | 1/9 | (11) % |  | 
Fp14-2/3c (AEVKLYLKQSL) | 9/10 | (90) % | 5/10 | (50) % |  | 
QASQEVKNWM [Hp15-1a] |  |  |  |  | high cytotoxin and CD107a expression | 
Fp14-3/4g (YLKQSLSIA) | 6/10 | (60) % | 0/10 | (0) % |  | 
LYLKQSLSI [Fp14-3/4e] |  |  |  |  | high frequency of cytotoxin expression | 
NPWNTPVFAIKKK [F3-1] |  |  |  |  |  | cytotoxin / CTL-associated activity (in words) [1]: induced CTL-associated activities
QEQNTAEVKL [Fp14-1a] |  |  |  |  | high cytotoxin and CD107a expression | 
Fp9-1/2a (EARFAPARM) | 5/9 | (56) % | 0/9 | (0) % |  | 
TPVFAIKKKSGKWRM [F3-2] |  |  |  |  |  | responder frequency of CD8+ T-cell proliferation to individual F3 peptides [2]: 3 of 8
Fp9-3f (APARMQCRAWYL) | 4/9 | (44) % | 1/9 | (11) % |  | 
AEVKLYLKQSLSI [Fp14-3d] |  |  |  |  |  | Cytotoxins ([1]; responders to Fp9 or Fp14 peptide pools): Low Cytotoxins (only CD8)
Fp14-1/2a (NTAEVKLYL) | 4/10 | (40) % | 1/10 | (10) % |  | 
WRMLIDFRVLNKL [F3-4] |  |  |  |  |  | cytotoxin expression / CTL-associated activity in CD8+ T cells (in words) [4]: highest frequency and levels; cytotoxin / CTL-associated activity (in words) [1]: induced CTL-associated activities
EQQAEARFAPARM [Fp9-1] |  |  |  |  |  | CD8^+ T-cell Responder Frequency (%) [2, 6]: (14) %; CD8^+ T-cell Responder Frequency [2, 6]: 1/7; CD4^+ T-cell Responder Frequency (%) [3, 6]: (0) %; CD4^+ T-cell Responder Frequency [3, 6]: 0/7
AEQASQEVKN [Hp15-1c] |  |  |  |  | high cytotoxin and CD107a expression | 
QNTAEVKLYL [Fp14-1b] |  |  |  |  | high frequency of cytotoxin expression; also recorded: high cytotoxin and CD107a expression | 
VKNWMTQTL [Sp14-1a] |  |  |  |  | slightly lower number of responses | 
Fp9-2/3b (APARMQCRA) | 3/9 | (33) % | 0/9 | (0) % |  | 
